pIC50: −log10 of the molar value.
Molecular target: T1, recombinant human GST-Syk (Homo sapiens, UniProt P43405)
T1 construct: purchased Carna Biosciences 08-176
Experiment: Homogeneous Time-Resolved Fluorescence (HTRF) assay for the recombinant human Syk enzyme
Format: biochemical
Conditions: ATP 25 μM, 10-dose titration, read-out: rhSYK Activity
Description: Syk inhibition may be determined using the following assay protocol:
Homogeneous Time-Resolved Fluorescence (HTRF) Assay for the Recombinant Human Syk Enzyme:
A recombinant GST-hSyk fusion protein was used to measure potency of compounds to inhibit human Syk activity. The recombinant human GST-Syk (Carna Biosciences #08-176) ([…]) was incubated with various concentrations of the inhibitor diluted in DMSO (0.1% final concentration) for 10 minutes at room temperature in 15 mM Tris-HCl (pH 7.5), 0.01% tween 20, 2 mM DTT in 384 well plate format. To initiate the reaction the biotinylated substrate peptide (250 nM final concentration) that contains the phosphorylation site for Syk was added with magnesium (5 mM final concentration) and ATP (25 μM final concentration). Final volume of the reaction was 10 μL. Phosphorylation of the peptide was allowed to proceed for 45 minutes at room temperature. To quench the reaction and detect the phosphorylated product, 2 nM of a Europium-anti-phosphotyrosine antibody (Perkin Elmer #AD0161) and 70 nM SA-APC (Perkin-Elmer #CR130-100) were added together in 15 mM Tris pH 7.5, 40 mM EDTA, 0.01% tween 20. Final volume of the quenching solution was 10 μL. The resulting HTRF signal was measured after 30 minutes on an EnVision (Perkin-Elmer) reader using a time-resolved fluorescence protocol. IC50 was determined following 10-dose titration (10 μM to 0.508 nM) and four parameter logistic curve fitting using the Merck Assay Data Analyzer. The rhSyk activity (IC50) is expressed as +++ (100 nM or less), ++ (between 100 and 1000 nM), + (between 1 and 10 μM).

Compound | pIC50
Cc1ccnc(Nc2cc(C)cc(-n3cnc([C@]4(O)CC[C@@H](OC(=O)c5ccccc5)CC4)c3)n2)c1 [Example 51, cis-4-hydroxy-4-(1-{4-methyl-6-[(4-methylpyridin-2-yl)amino]pyridin-2-yl}-1H-imidazol-4-yl)cyclohexyl benzoate] | ≥ 7.00
CC(C)(O)c1cn(-c2cccc(Nc3cc(Cl)ccn3)n2)cn1 [Example 101, 2-(1-{6-[(4-chloropyridin-2-yl)amino]pyridin-2-yl}-1H-imidazol-4-yl)propan-2-ol] | ≥ 7.00
COC(=O)c1cn(-c2cccc(Nc3cc(C)ccn3)n2)cn1 [Example 102, Methyl 1-{6-[(4-methylpyridin-2-yl)amino]pyridin-2-yl}-1H-imidazole-4-carboxylate] | 6.00 to 7.00
Cc1cc(Nc2cc(C(C)(C)C)ccn2)nc(-n2cnc([C@]3(O)CC[C@@H](O)CC3)c2)c1 [Example 47, cis-1-(1-{6-[(4-tert-butylpyridin-2-yl)amino]-4-methylpyridin-2-yl}-1H-imidazol-4-yl)cyclohexane-1,4-diol] | ≥ 7.00
Cc1cc(Nc2cc(Cl)ccn2)nc(-n2cnc(C(O)(C3CC3)C3CC3)c2)c1 [Example 80, (1-{6-[(4-chloropyridin-2-yl)amino]-4-methylpyridin-2-yl}-1H-imidazol-4-yl)(dicyclopropyl)-methanol] | ≥ 7.00
Cc1cc(Nc2cc(C(F)(F)F)ccn2)nc(-n2cnc(C3(O)CCN(C(N)=O)CC3)c2)c1 [Example 116, 4-Hydroxy-4-[1-(4-methyl-6-{[4-(trifluoromethyl)pyridin-2-yl]amino}pyridin-2-yl)-1H-imidazol-4-yl]piperidine-1-carboxamide] | ≥ 7.00
COC(=O)c1cn(-c2cccc(Nc3cc(C(F)(F)F)ccn3)n2)cn1 [Example 96, Methyl 1-(6-{[4-(trifluoromethyl)pyridin-2-yl]amino}pyridin-2-yl)-1H-imidazole-4-carboxylate] | ≥ 7.00
O=C(c1cn(-c2cccc(Nc3nccc(C(F)(F)F)n3)c2)cn1)N1CCCC1 [Example 70, Pyrrolidin-1-yl[1-(3-{[4-(trifluoromethyl)pyrimidin-2-yl]amino}phenyl)-1H-imidazol-4-yl]methanone] | 6.00 to 7.00
CC(C)NC(=O)c1cn(-c2cccc(Nc3nccc(C(F)(F)F)n3)c2)cn1 [Example 103, N-(1-methylethyl)-1-(3-{[4-(trifluoromethyl)pyrimidin-2-yl]amino}phenyl)-1H-imidazole-4-carboxamide] | 6.00 to 7.00
Cc1cc(Nc2cc(C)c(F)cn2)nc(-n2cnc([C@]3(O)CC[C@@H](O)CC3)c2)c1 [Example 43, cis-1-(1-{6-[(5-fluoro-4-methylpyridin-2-yl)amino]-4-methylpyridin-2-yl}-1H-imidazol-4-yl)cyclohexane-1,4-diol] | ≥ 7.00
O=C(O)CCc1cn(-c2cccc(Nc3cc(C(F)(F)F)ccn3)n2)cn1 [Example 114, 3-(1-(6-((4-(Trifluoromethyl)pyridin-2-yl)amino)pyridin-2-yl)-1H-imidazol-4-yl)propanoic acid] | ≥ 7.00
OC(c1cn(-c2cccc(Nc3nccc(C(F)(F)F)n3)c2)cn1)(C1CC1)C1CC1 [Example 82, dicyclopropyl[1-(3-{[4-(trifluoromethyl)-pyrimidin-2-yl]amino}phenyl)-1H-imidazol-4-yl]methanol] | ≥ 7.00
CCCCOC(=O)[C@H]1CC[C@H](C(C)(O)c2cn(-c3cc(C)cc(Nc4nccc(C)n4)c3)cn2)CC1 (relative stereo) [Example 11, Butyl trans-4-[1-hydroxy-1-(1-{3-methyl-5-[(4-methylpyrimidin-2-yl)amino]phenyl}-1H-imidazol-4-yl)ethyl]-cyclohexanecarboxylate] | 6.00 to 7.00
CC(C)(O)c1cn(-c2cccc(Nc3nccc(C(F)(F)F)n3)c2)cn1 [Example 104, 2-[1-(3-{[4-(trifluoromethyl)pyrimidin-2-yl]amino}-phenyl)-1H-imidazol-4-yl]propan-2-ol] | 6.00 to 7.00
Cc1cc(Nc2cc(C(F)(F)F)ccn2)nc(-n2cnc([C@]3(O)CC[C@@H](OC(=O)c4ccccc4)CC3)c2)c1 [Example 64, cis-4-hydroxy-4-[1-(4-methyl-6-{[4-(trifluoromethyl)pyridin-2-yl]amino}pyridin-2-yl)-1H-imidazol-4-yl]cyclohexyl benzoate] | ≥ 7.00

More lines, now with the values ahead:

pIC50 | Compound
≥ 7.00 | Cc1cc(Nc2nccc(C(F)(F)F)n2)cc(-n2cnc([C@]3(O)CC[C@H](O)[C@@H](C)C3)c2)c1 [Example 54, (1S,3S,4S)-3-methyl-1-[1-(3-methyl-5-{[4-(trifluoromethyl)pyrimidin-2-yl]amino}phenyl)-1H-imidazol-4-yl]cyclohexane-1,4-diol]
≥ 7.00 | CCOC(=O)[C@H]1CC[C@](O)(c2cn(-c3cc(C)cc(Nc4cc(C(F)(F)F)ccn4)n3)cn2)CC1 [Example 29, Ethyl cis-4-hydroxy-4-[1-(4-methyl-6-{[4-(trifluoromethyl)pyridin-2-yl]amino}pyridin-2-yl)-1H-imidazol-4-yl]cyclohexane-carboxylate]
≥ 7.00 | CC(C)(O)c1cn(-c2cc(Nc3nccc(C(F)(F)F)n3)cc(N3CCOCC3)c2)cn1 [Example 107, 2-[1-(3-morpholin-4-yl-5-{[4-(trifluoromethyl)pyrimidin-2-yl]amino}-phenyl)-1H-imidazol-4-yl]propan-2-ol]
≥ 7.00 | Cc1cc(Nc2nccc(C3CC3)n2)cc(-n2cnc([C@]3(O)CC[C@@H](O)CC3)c2)c1 [Example 40, cis-1-(1-{3-[(4-cyclopropylpyrimidin-2-yl)amino]-5-methylphenyl}-1H-imidazol-4-yl)cyclohexane-1,4-diol]
≥ 7.00 | COC(=O)C[C@H]1CC[C@@](O)(c2cn(-c3cc(C)cc(Nc4nccc(C(F)(F)F)n4)c3)cn2)CC1 [Example 17, Methyl {trans-4-hydroxy-4-[1-(3-methyl-5-{[4-(trifluoromethyl)pyrimidin-2-yl]amino}phenyl)-1H-imidazol-4-yl]-cyclohexyl}acetate]
≥ 7.00 | Cc1cc(Nc2cc(C(F)(F)F)ccn2)nc(-n2cnc([C@]3(O)CC[C@H](CC(=O)O)CC3)c2)c1 [Example 13, {trans-4-hydroxy-4-[1-(4-methyl-6-{[4-(trifluoromethyl)pyridin-2-yl]amino}pyridin-2-yl)-1H-imidazol-4-yl]cyclohexyl}acetic acid]
≥ 7.00 | Cc1cc(Nc2ncc(F)c(C)n2)cc(-n2cnc([C@]3(O)CC[C@@H](O)CC3)c2)c1 [Example 57, cis-1-(1-{3-[(5-fluoro-4-methylpyrimidin-2-yl)amino]-5-methylphenyl}-1H-imidazol-4-yl)cyclohexane-1,4-diol]
6.00 to 7.00 | Cc1cc(Nc2nccc(C(F)(F)F)n2)cc(-n2cnc([C@]3(O)CC[C@H](OC(=O)c4ccccc4)CC3)c2)c1 [Example 66, trans-4-hydroxy-4-[1-(3-methyl-5-{[4-(trifluoromethyl)pyrimidin-2-yl]amino}phenyl)-1H-imidazol-4-yl]cyclohexyl benzoate]
≥ 7.00 | Cc1cc(Nc2nccc(C3CC3)n2)cc(-n2cnc(CCC(=O)O)c2)c1 [Example 75, 3-(1-{3-[(4-cyclopropylpyrimidin-2-yl)amino]-5-methylphenyl}-1H-imidazol-4-yl)propanoic acid]
≥ 7.00 | Cc1cc(Nc2nccc(C(F)(F)F)n2)cc(-n2cnc(C3(O)CCC(=O)CC3)c2)c1 [Example 53, 4-hydroxy-4-[1-(3-methyl-5-{[4-(trifluoromethyl)pyrimidin-2-yl]amino}phenyl)-1H-imidazol-4-yl]cyclohexanone]
≥ 7.00 | Cc1cc(Nc2nccc(C(F)(F)F)n2)cc(-n2cnc(C(=O)N3CCCC3)c2)c1 [Example 88, N-{3-methyl-5-[4-(pyrrolidin-1-ylcarbonyl)-1H-imidazol-1-yl]phenyl}-4-(trifluoromethyl)pyrimidin-2-amine]
≥ 7.00 | Cc1cc(Nc2nccc(C3CC3)n2)cc(-n2cnc([C@]3(O)CC[C@@H](OC(=O)c4ccccc4)CC3)c2)c1 [Example 42, cis-4-(1-{3-[(4-cyclopropylpyrimidin-2-yl)amino]-5-methylphenyl}-1H-imidazol-4-yl)-4-hydroxycyclohexyl benzoate]
6.00 to 7.00 | CCCCOC(=O)[C@H]1CC[C@H](C(C)(O)c2cn(-c3cc(C)cc(Nc4nccc(C(F)(F)F)n4)c3)cn2)CC1 (relative stereo) [Example 12, Butyl trans-4-{1-hydroxy-1-[1-(3-methyl-5-[(4-(trifluoromethyl)-pyrimidin-2-yl]amino}-phenyl)-1H-imidazol-4-yl]ethyl}cyclohexane-carboxylate]
≥ 7.00 | Cc1cc(Nc2nccc(C(F)(F)F)n2)cc(-n2cnc(C3(O)CCC(C(=O)O)C(C)(C)C3)c2)c1 (racemic) [Example 25, 4-hydroxy-2,2-dimethyl-4-[1-(3-methyl-5-{[4-(trifluoromethyl)pyrimidin-2-yl]amino}phenyl)-1H-imidazol-4-yl]-cyclohexanecarboxylic acid]

Same assay, conditions: ATP 25 μM, 10-dose titration, read-out: rhSYK IC50

pIC50 | Compound
8.44 | Cc1cc(Nc2cc(C(F)(F)F)ccn2)nc(-n2cnc(C3(O)CCN(C(N)=O)CC3)c2)c1 [Example 116, 4-Hydroxy-4-[1-(4-methyl-6-{[4-(trifluoromethyl)pyridin-2-yl]amino}pyridin-2-yl)-1H-imidazol-4-yl]piperidine-1-carboxamide]
